Series [1] can be described thus: Appearance of solutions in solubility study of variants. The class given is physicochemical. On the procedure: (§1) Solubility study of variants was performed by adding variants powders into solvent in concentration of 5 mg/ml and then vortexing for 3 min. Observe the appearance of solutions in 5 min. Add more powder (˜5 mg/ml each time) and repeat vortex and observe until precipitation or gelation occurs.

The nature of series [2]: pH-solubility of polypeptide variants. To be noted: read-out: pH-solubility, Concentration; for solubility thermodynamic at 3 min: a: precipitate, supernatant assayed; for solubility at 3 min: b: high viscous solution, aliquot assayed. The class given is physicochemical. How it is done:
as §1

From patent US12280088B2, “Dry powder formulation of caveolin-1 peptides and methods of use thereof” (BOARD OF REGENTS, THE UNIVERSITY OF TEXAS SYSTEM, priority 2018, dated 2025) come the findings set out here.

Values after ≈ are worked out from the molar mass of the structure shown. Where two headings read alike, the source gives them in different places. Square brackets hold non-standard residues; d marks the D form. Peptide text beside a SMILES is read from it. Orn = NCCC[C@H](N)C(=O)O

`CC(C)[C@H](NC(=O)[C@@H](NC(=O)[C@H](Cc1ccccc1)NC(=O)[C@@H](NC(=O)[C@@H](NC(=O)[C@H](Cc1ccccc1)NC(=O)[C@H](CO)NC(=O)[C@H](C)NC(=O)[C@@H](N)CCCCN)[C@@H](C)O)[C@@H](C)O)[C@@H](C)O)C(=O)N[C@H](C(=O)N[C@@H](CCCCN)C(=O)NCC(=O)N[C@@H](CO)C(=O)O)[C@@H](C)O` [SEQ ID NO.4] (H-KASFTTFTVTKGS-OH): the Appearance of solutions result in series [1] (pH 4.5, 5 mg/ml) was “Clear”; in series [1] (pH 4.5, 10 mg/ml), “Clear”; in series [1] (pH 4.5, 15 mg/ml) it was “Clear”; in series [1] (pH 4.5, 20 mg/ml) it was “Clear”; in series [1] (pH 4.5, 25 mg/ml) it was “Clear”; in series [1] (pH 7.5, 5 mg/ml), “Clear”. Moreover, the Appearance of solutions result in series [1] (pH 7.5, 10 mg/ml) is “Clear”; in series [1] (pH 8.5, 5 mg/ml) it was “Clear”; in series [1] (pH 8.5, 10 mg/ml), “Clear”. For the same compound, the solubility thermodynamic at 3 min in series [2] (pH 4.5) amounted to 25.4 ± 0.8 mg/mL (≈ 18.5 mM); in series [2] (pH 5.5), 4 ± 0.2 mg/mL (≈ 2.91 mM); in series [2] (pH 6.5), 5.9 ± 0.4 mg/mL (≈ 4.29 mM); in series [2] (pH 7.5), 16.7 ± 0.5 mg/mL (≈ 12.1 mM); in series [2] (pH 8.5) it was 10.8 ± 1.1 mg/mL (≈ 7.86 mM).
Consider `CC(C)[C@H](NC(=O)[C@@H](NC(=O)[C@H](Cc1ccccc1)NC(=O)[C@@H](NC(=O)[C@@H](NC(=O)[C@H](Cc1ccccc1)NC(=O)[C@H](CO)NC(=O)[C@H](C)NC(=O)[C@H](CCCCN)NC(=O)CNC(=O)[C@H](CCC(=O)O)NC(=O)[C@@H](C)NC(=O)[C@@H](C)N)[C@@H](C)O)[C@@H](C)O)[C@@H](C)O)C(=O)N[C@H](C(=O)N[C@@H](CCCCN)C(=O)NCC(=O)N[C@@H](CO)C(=O)N[C@H](C)C(=O)N[C@H](C)C(N)=O)[C@@H](C)O` [SEQ ID NO.7] (H-[dA][dA]EGKASFTTFTVTKGS[dA][dA]-NH2), for which the Appearance of solutions entry in series [1] (pH 4.5, 5 mg/ml) was “Clear”; in series [1] (pH 4.5, 10 mg/ml) it was “Clear”; in series [1] (pH 4.5, 15 mg/ml), “Clear”; in series [1] (pH 4.5, 20 mg/ml), “Clear”; in series [1] (pH 4.5, 25 mg/ml) it was “Clear”; in series [1] (pH 4.5, 40 mg/ml) it was “Gel”. The Appearance of solutions entry is reported as “Clear” in series [1] (pH 5.5, 5 mg/ml); “Clear” in series [1] (pH 5.5, 10 mg/ml); “Clear” in series [1] (pH 5.5, 15 mg/ml); “Clear” in series [1] (pH 7.5, 5 mg/ml); “Clear” in series [1] (pH 7.5, 10 mg/ml); “Clear” in series [1] (pH 7.5, 15 mg/ml). Also, the Appearance of solutions result is “Clear” in series [1] (pH 7.5, 20 mg/ml); “Clear” in series [1] (pH 7.5, 25 mg/ml); “Clear” in series [1] (pH 8.5, 5 mg/ml); “Clear” in series [1] (pH 8.5, 10 mg/ml); “Clear” in series [1] (pH 8.5, 15 mg/ml); “Clear” in series [1] (pH 8.5, 20 mg/ml). Further, in series [1] (pH 8.5, 25 mg/ml), the Appearance of solutions entry is recorded as “Clear”. Moreover, the solubility at 3 min is not below 32 mg/mL in series [2] (pH 4.5), not below 30.5 mg/mL in series [2] (pH 6.5), not below 35.3 mg/mL in series [2] (pH 7.5) and not below 23.8 mg/mL in series [2] (pH 8.5). For the same compound, in series [2] (pH 5.5), the solubility thermodynamic at 3 min is 22.3 ± 0.1 mg/mL (≈ 12.1 mM).
Regarding `CC(=O)N[C@H](C)C(=O)N[C@H](C)C(=O)N[C@@H](CCC(=O)O)C(=O)NCC(=O)N[C@@H](CCCCN)C(=O)N[C@@H](C)C(=O)N[C@@H](CO)C(=O)N[C@@H](Cc1ccccc1)C(=O)N[C@H](C(=O)N[C@H](C(=O)N[C@@H](Cc1ccccc1)C(=O)N[C@H](C(=O)N[C@H](C(=O)N[C@H](C(=O)N[C@@H](CCCCN)C(=O)NCC(=O)N[C@@H](CO)C(=O)N[C@H](C)C(=O)N[C@H](C)C(N)=O)[C@@H](C)O)C(C)C)[C@@H](C)O)[C@@H](C)O)[C@@H](C)O` [SEQ ID NO.8] (Ac-[dA][dA]EGKASFTTFTVTKGS[dA][dA]-NH2), the Appearance of solutions entry in series [1] (pH 4.5, 5 mg/ml) is “Clear”; in series [1] (pH 4.5, 10 mg/ml), “Clear”; in series [1] (pH 4.5, 15 mg/ml), “Clear”; in series [1] (pH 4.5, 20 mg/ml), “Clear”; in series [1] (pH 4.5, 25 mg/ml), “Gel”; in series [1] (pH 5.5, 5 mg/ml), “Clear”. In addition, the Appearance of solutions result is “Clear” in series [1] (pH 7.5, 5 mg/ml); “Clear” in series [1] (pH 7.5, 10 mg/ml); “Clear” in series [1] (pH 7.5, 15 mg/ml); “Clear” in series [1] (pH 8.5, 5 mg/ml); “Clear” in series [1] (pH 8.5, 10 mg/ml); “Clear” in series [1] (pH 8.5, 15 mg/ml). In addition, the Appearance of solutions entry in series [1] (pH 8.5, 20 mg/ml) is reported as “Clear”. In series [2] (pH 4.5), the solubility at 3 min is not below 24.2 mg/mL. The solubility thermodynamic at 3 min worked out at 23.6 ± 0.6 mg/mL (≈ 12.5 mM) in series [2] (pH 5.5), 27.3 ± 1.2 mg/mL (≈ 14.5 mM) in series [2] (pH 6.5), 28.3 ± 2.2 mg/mL (≈ 15 mM) in series [2] (pH 7.5) and 20.6 ± 2.4 mg/mL (≈ 10.9 mM) in series [2] (pH 8.5).
For the compound `CC(C)[C@H](NC(=O)[C@@H](NC(=O)[C@H](Cc1ccccc1)NC(=O)[C@@H](NC(=O)[C@@H](NC(=O)[C@H](Cc1ccccc1)NC(=O)[C@H](CO)NC(=O)[C@H](C)NC(=O)[C@@H](N)CCCN)[C@@H](C)O)[C@@H](C)O)[C@@H](C)O)C(=O)N[C@H](C(=O)N[C@@H](CCCN)C(=O)N[C@@H](CO)C(N)=O)[C@@H](C)O` [SEQ ID NO.10, OASFTTFTVTOS-NH2] (H-[Orn]ASFTTFTVT[Orn]S-NH2), the Appearance of solutions entry in series [1] (pH 4.5, 5 mg/ml) is listed as “Clear”; in series [1] (pH 4.5, 10 mg/ml), “Clear”; in series [1] (pH 4.5, 15 mg/ml), “Clear”; in series [1] (pH 4.5, 20 mg/ml), “Clear”; in series [1] (pH 4.5, 25 mg/ml), “Clear”; in series [1] (pH 7.5, 5 mg/ml) it was “Clear”. Also, the Appearance of solutions result was “Clear” in series [1] (pH 7.5, 10 mg/ml); “Clear” in series [1] (pH 7.5, 15 mg/ml); “Clear” in series [1] (pH 7.5, 20 mg/ml); “Clear” in series [1] (pH 8.5, 5 mg/ml); “Clear” in series [1] (pH 8.5, 10 mg/ml); “Clear” in series [1] (pH 8.5, 15 mg/ml). Further, the solubility thermodynamic at 3 min in series [2] (pH 4.5) was 33.9 ± 0.9 mg/mL (≈ 26.3 mM); in series [2] (pH 5.5), 3.6 ± 0.8 mg/mL (≈ 2.79 mM); in series [2] (pH 6.5), 5.5 ± 0.7 mg/mL (≈ 4.27 mM); in series [2] (pH 7.5) it was 19.1 ± 0.1 mg/mL (≈ 14.8 mM); in series [2] (pH 8.5), 14.6 ± 1.6 mg/mL (≈ 11.3 mM).
Take `CC[C@H](C)[C@H](NC(=O)CNC(=O)[C@@H](N)CC(=O)O)C(=O)N[C@@H](Cc1c[nH]c2ccccc12)C(=O)N[C@@H](CCCCN)C(=O)N[C@@H](C)C(=O)N[C@@H](CO)C(=O)N[C@@H](Cc1ccccc1)C(N)=O` [SEQ ID NO.21] (H-DGIWKASF-NH2): the solubility thermodynamic at 3 min in series [2] (pH 4.5) came to 0.62 ± 0.04 mg/mL (≈ 0.672 mM); in series [2] (pH 5.5), 0.14 ± 0.02 mg/mL (≈ 0.152 mM); in series [2] (pH 6.5), 0.26 ± 0.07 mg/mL (≈ 0.282 mM); in series [2] (pH 7.5) it was 0.25 ± 0.03 mg/mL (≈ 0.271 mM); in series [2] (pH 8.5) it was 0.17 ± 0.04 mg/mL (≈ 0.184 mM).
In the case of `CC(C)[C@H](N)C(=O)N[C@H](C(=O)N[C@@H](CCCCN)C(=O)N[C@@H](Cc1ccc(O)cc1)C(=O)N[C@@H](Cc1c[nH]c2ccccc12)C(=O)N[C@@H](Cc1ccccc1)C(=O)N[C@@H](Cc1ccc(O)cc1)C(=O)N[C@@H](CCCNC(=N)N)C(N)=O)[C@@H](C)O` [SEQ ID NO.22] (H-VTKYWFYR-NH2), the Appearance of solutions result in series [1] (pH 4.5, 5 mg/ml) is recorded as “Clear”; in series [1] (pH 4.5, 10 mg/ml) it was “Clear”; in series [1] (pH 4.5, 15 mg/ml) it was “Clear”; in series [1] (pH 4.5, 20 mg/ml), “Clear”; in series [1] (pH 4.5, 25 mg/ml), “Clear”; in series [1] (pH 4.5, 30 mg/ml) it was “Clear”. The Appearance of solutions result is given as “Clear” in series [1] (pH 4.5, 35 mg/ml); “Clear” in series [1] (pH 4.5, 40 mg/ml); “Clear” in series [1] (pH 4.5, 45 mg/ml); “Clear” in series [1] (pH 4.5, 50 mg/ml); “Clear” in series [1] (pH 4.5, 55 mg/ml); “Clear” in series [1] (pH 4.5, 60 mg/ml). The Appearance of solutions result in series [1] (pH 7.5, 5 mg/ml) is reported as “Clear”; in series [1] (pH 7.5, 10 mg/ml) it was “Clear”; in series [1] (pH 7.5, 15 mg/ml) it was “Clear”; in series [1] (pH 7.5, 20 mg/ml), “Clear”; in series [1] (pH 7.5, 25 mg/ml), “Clear”; in series [1] (pH 7.5, 30 mg/ml) it was “Clear”. The Appearance of solutions result is given as “Clear” in series [1] (pH 7.5, 35 mg/ml); “Clear” in series [1] (pH 7.5, 40 mg/ml); “Clear” in series [1] (pH 7.5, 45 mg/ml); “Clear” in series [1] (pH 7.5, 50 mg/ml); “Clear” in series [1] (pH 7.5, 55 mg/ml); “Clear” in series [1] (pH 7.5, 60 mg/ml). For the same compound, the Appearance of solutions result in series [1] (pH 7.5, 65 mg/ml) is “Turbid”; in series [1] (pH 8.5, 5 mg/ml) it was “Clear”; in series [1] (pH 8.5, 10 mg/ml) it was “Clear”; in series [1] (pH 8.5, 15 mg/ml), “Clear”; in series [1] (pH 8.5, 20 mg/ml), “Clear”. The solubility thermodynamic at 3 min in series [2] (pH 4.5) came to 57.2 ± 9.1 mg/mL (≈ 49.2 mM); in series [2] (pH 5.5) it was 2.98 ± 0.1 mg/mL (≈ 2.57 mM); in series [2] (pH 6.5) it was 3.49 ± 0.6 mg/mL (≈ 3.01 mM); in series [2] (pH 7.5), 61.5 ± 1.7 mg/mL (≈ 53 mM); in series [2] (pH 8.5) it was 29.1 ± 3.5 mg/mL (≈ 25.1 mM).
